Measurements published in paper PMC10633902, “Investigating the antimicrobial activity, cytotoxicity, and action mechanism of acylated and amidated derivatives of AurH1 antifungal peptide” (BMC Microbiology, 2023).
Read-outs that look alike come from different tables or passages of the source. No end group written: not given here.

Experiments:
human red blood cells = format: cell-based; conditions: 1 h
Protocol: A hemolytic assay was performed to investigate the effects of peptides on human red blood cells. First, 5 ml of fresh human blood was taken from a volunteer. After that, 20% (v/v) suspension of human erythrocytes was prepared and diluted in PBS (1:20). Next, 100 µL of this blood suspension was added in triplicate to 100 µL of a 2-fold serial dilution series of the peptide in a 96‐well plate. 1% Triton-X 100 was used as a positive control to lyse 100% of RBCs, and sterile 0.9% NaCl solution was used as a negative control. Then the plates were incubated at 37 °C for 1 h and centrifuged at 3500 rpm for 10 min. Next, 100 µL of the supernatant was transferred to a new 96-well plate to measure the absorbance at 414 nm using a microplate reader (STAT FAX 2100, BioTek, Winooski, USA). Finally, the percentage of hemolysis was calculated as follows: […]

[1] = test system: Staphylococcus aureus (ATCC 25,923); design: method as in our previous study [6]; conditions: S. aureus; ref our previous study [6]; cited from earlier work
[2] = test system: Aspergillus flavus (ATCC 24,109); design: method as in our previous study [6]; conditions: A. flavus; ref our previous study [6]; cited from earlier work
C. albicans [3] = assay: Effect of salts and human serum on antimicrobial activity (MIC); format: cell-based, Candida albicans
Protocol: To evaluate the effect of salts and human serum on the antimicrobial activity of the AurH1-NH2 and AurH1 peptides, their antimicrobial activity (MICs values) against C. albicans under different conditions containing salt and human serum was determined. Therefore, mid-logarithmic phase yeasts diluted to 5 × 10^5 CFU/ml in SDB were added to related media containing different concentrations of human serum (10%, 20%, and 30%) and salts (150 mM NaCl and 1mM MgCl2), and incubated at 37 °C for 24 h.

C. albicans [4] = assay: Ergosterol binding assay (MIC in presence and absence of ergosterol); format: cell-based, Candida albicans
Protocol: An ergosterol binding assay was performed to measure the binding potency of peptides to fungal membrane sterols. For this purpose, the ergosterol was dissolved in DMSO and Tween-20, it was heated to increase the solubility of the formed emulsion and diluted in an SDB medium at a concentration of […] and incubated at 37 °C for 1 h. After that, MIC of the AurH1, Ac-AurH1, and AurH1-NH2 peptides was measured by the micro-dilution method in the presence and absence of ergosterol in different concentrations ([…]) against C. albicans.

[5] = test system: Candida krusei (ATCC 28,870); design: method as in our previous study [6]; conditions: C. krusei; ref our previous study [6]; cited from earlier work
[6] = test system: Candida glabrata (ATCC 90,030); design: method as in our previous study [6]; conditions: C. glabrata; ref our previous study [6]; cited from earlier work
C. albicans [7] = test system: C. albicans; design: method as in PMID 31264322; conditions: cited from earlier work
[8] = test system: Escherichia coli (ATCC 25,922); design: method as in our previous study [6]; conditions: E. coli; ref our previous study [6]; cited from earlier work
[9] = test system: Aspergillus niger (ATCC 9142); design: method as in our previous study [6]; conditions: A. niger; ref our previous study [6]; cited from earlier work
[10] = test system: Candida albicans (ATCC 10,231); design: method as in our previous study [6]; conditions: C. albicans; ref our previous study [6]; cited from earlier work
C. albicans [11] = assay: Killing kinetic assay (time of killing); format: cell-based, Candida albicans; conditions: 1X MIC concentration

WFKIIKK [AurH1, WFKIIKK]
HC50 (concentration that lyses 50% of red blood cells) (human red blood cells): 13,484 µg/ml | MIC [1]: > 1000 µg/mL | MIC [2]: > 1000 µg/mL | MIC (C. albicans [3]; SDB): 15.6 µg/mL | MIC (C. albicans [3]; SDB + 10% serum (human)): 15.6 µg/mL | MIC (C. albicans [3]; SDB + 20% serum (human)): 62.5 µg/mL | MIC (C. albicans [3]; SDB + 30% serum (human)): 125 µg/mL | MIC (C. albicans [3]; SDB + MgCl2 (1 mM)): 15.6 µg/mL | MIC (C. albicans [3]; SDB + NaCl (150 mM)): 15.6 µg/mL | MIC (C. albicans [4]; after treatment with Ergosterol (Erg)): 15.6 µg/mL | MIC (C. albicans [4]; before treatment with Ergosterol (substance alone)): 15.6 µg/mL | MBC (MFC) [5]: 250 µg/mL | MIC [5]: 31.25 µg/mL | MBC (MFC) [6]: 500 µg/mL | MIC [6]: 125 µg/mL | combinatorial effect (in words) (C. albicans [7]; in combination with amphotericin B): synergistic effects | combinatorial effect (in words) (C. albicans [7]; in combination with fluconazole): synergistic effects | MIC [8]: > 1000 µg/mL | MBC (MFC) [9]: 500 µg/mL | MIC [9]: 125 µg/mL | MBC (MFC) [10]: 125 µg/mL | MIC [10]: 15.625 µg/mL | time to kill all C. albicans (maximum fungicidal effect) (C. albicans [11]): 24 h
